Assay results published in patent US10300155B2, “Alpha-synuclein ligands” (Washington University, priority 2015, dated 2019).
Values joined by “and” are separate entries in the source; they are usually repeats but may differ in a detail not shown here. Identical values can stand only once. Like-named read-outs stand apart in the source and are kept apart here.

Tests used:
Type in all cases: binding
Aβ fibrils = Aβ fibrils (Homo sapiens, UniProt P05067); assay: ThT competitive assay for Aβ fibrils (Table 2); parameters: made in house; host or cells: E. coli; conditions: for EC50: Aβ fibrils
Chain of Aβ fibrils (P05067 672-713 limits assumed): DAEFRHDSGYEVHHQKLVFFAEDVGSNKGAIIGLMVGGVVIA
Procedure: […] recombinant protein was produced in E. coli. Additional preparation was performed in a similar fashion to Example 115. […] The inhibitor that binds with highest affinity to Aβ fibrils has the lowest dissociation constant (Ki).

α-synuclein fibrils [1] = target: T1, α-synuclein fibrils (Homo sapiens, UniProt P37840); assay: ThT competitive assay for α-synuclein fibrils (Table 1); conditions: for EC50: α-synuclein fibrils
T1 construct: made in house; host or cells: E. coli BL21(DE3)RIL
Procedure: Upon binding to amyloid fibrils, a peak at approximately 440 nm becomes dominant with the fluorescent emission maximum shifted to 480 nm. This is accompanied by a strong enhancement of the fluorescence.
α-Synuclein recombinant protein was produced in E. coli. […] Freshly transformed BL21 colonies were inoculated into 2 L baffled flasks containing 250 mL sterilized TB (1.2% bactotryptone, 2.4% yeast extract, 0.4% glycerol, 0.17 M KH2PO4, 0.72 M K2HPO4) with 50 μg/ml ampicillin, and incubated overnight at 37° C. with shaking.
To determine the concentration of fibrils, the reaction mixture (100 μL) was centrifuged at 18,000×g for 10 minutes to separate fibrils from monomer. The α-synuclein monomer and other soluble proteins in the supernatant were removed, and the fibril pellet was resuspended in 100 μL solution of Tris-HCl (20 mM) and NaCl (100 mM). This fibril suspension was used in a bicinchoninic acid (BCA) protein assay along with a bovine serum albumin (BSA) standard curve to determine the concentration of fibrils in the 72 hour fibril reaction mixture.
To prepare the fibrils for performing binding assays, the fibril reaction mixture prepared above was centrifuged at 18,000×g for 10 minutes.
Once the ThT-α-synuclein saturation binding curve and dissociation constant (Kd) were determined the competitive assay for determining the binding affinity of various test compounds was conducted. […] The mixture was incubated at room temperature for 60 minutes on the shaking plate. The fluorescent intensity for each cell was measured by the fluorescence reader at λex and λem. The Ki value for each compound was calculated by the corresponding inhibition curve.
The Ki values were derived from the EC50 values using the Cheng-Prusoff equation: Ki=EC50/(1+[radioligand]/Kd). See FIGS. 17.1-31.2 for the inhibition curves for each compound in the ThioT competitive binding assay.

α-synuclein fibrils [2] = target: T1, α-synuclein fibrils; assay: Thioflavin T competition assay (Example 130, Table 9), α-synuclein fibrils
Procedure: Freshly transformed BL21 colonies were inoculated into 2 L baffled flasks containing 250 ml sterilized TB (1.2% bactotryptone, 2.4% yeast extract, 0.4% glycerol, 0.17 M KH2PO4, 0.72 M K2HPO4) with 50 μg/ml ampicillin, and incubated overnight at 37° C. with shaking.
Competition assays used a fixed concentration of α-syn, Aβ, or tau fibrils (1 μM), consisting of 3 μM, 50 nM and 4 μM of ThioflavinT respectively. […] To optimize the determination of selectivity, assays for all three fibril species were set up in parallel using a common set of intermediate compound dilutions for each analog. Reactions were incubated at room temperature for 1.5 h before quantifying bound ligand as described above for the saturation binding assay. […] All data points were performed in triplicate. Nonspecific fluorescence was measured in parallel reactions containing ThioT plus each concentration of competitor but no fibrils, and these measurements were subtracted from the reactions with fibrils to yield fibril-specific fluorescence. Data were analyzed using Graphpad. Prism software (version 4.0) to obtain EC50 values by fitting the data to the equation Y=bottom+(top-bottom)/(1+10^(x−log EC50)).

[3] = average, read-out: Ki (nM) α-syn (avg)
[4] = individual determinations, read-out: Ki (nM) α-syn
[5] = average, read-out: EC50 (nM) EC50 (avg)
[6] = individual determinations, read-out: EC50 (nM) EC50
[7] = average, read-out: α-synuclein EC50 (avg)
[8] = average, read-out: α-synuclein Ki (avg)
[9] = individual determinations, read-out: α-synuclein EC50
[10] = individual determinations, read-out: α-synuclein Ki

SMILES | EC50 (Aβ fibrils; average, read-out: EC50(nM) EC50 (avg)) [nM] | EC50 (Aβ fibrils; individual determinations, read-out: EC50(nM) EC50) | Ki (Aβ fibrils; average, read-out: Ki (nM) Aβ (avg)) [nM] | Ki (Aβ fibrils; individual determinations, read-out: Ki (nM) Aβ) | Ki (α-synuclein fibrils [1]; [3]) [nM] | Ki (α-synuclein fibrils [1]; [4]) | EC50 (α-synuclein fibrils [1]; [5]) [nM] | EC50 (α-synuclein fibrils [1]; [6]) | EC50 (α-synuclein fibrils [2]; [7]) [nM] | Ki (α-synuclein fibrils [2]; [8]) [nM] | EC50 (α-synuclein fibrils [2]; [9]) | Ki (α-synuclein fibrils [2]; [10])
COc1ccc(/C=C/c2ccco2)cc1 [TZ-34-24] | 2280 | 2560 nM and 2000 nM | 888 | 961 nM and 815 nM | 345 | 610 nM and 163 nM and 262 nM | 902 | 1590 nM and 426 nM and 686 nM |  |  |  | 
COc1cc(/C=C/c2ccc3cc(OC(C)C)ccc3n2)ccn1 [TZ-36-138] |  |  |  |  | 49 | 49 nM | 128 | 128 nM | 128 | 49 | 128 nM | 49 nM
COc1ccc2nc(C#Cc3ccnc(OC)c3)ccc2c1 [TZ-36-142] |  |  |  |  | 233 | 233 nM | 609 | 609 nM | 609 | 233 | 609 nM | 233 nM
COCOc1ccc2nc(/C=C/c3ccnc(OC)c3)ccc2c1 [TZ-36-144] |  |  |  |  | 42 | 42 nM | 110 | 110 nM | 110 | 42 | 110 nM | 42 nM
COc1ccc2nc(/C=C/c3ccnc(Br)c3)ccc2c1 [TZ-36-36] |  |  |  |  | 152 | 128 nM and 175 nM | 396 | 335 nM and 457 nM | 396 | 152 | 335 nM and 457 nM | 128 nM and 175 nM
